Assay results published in patent US20080160009A1, “Inhibiting Cav3 Isoforms and the 25B Splice Varients for the Diagnosis and Treatment of Cancer” (priority 2004, published 2008).

Tested on: human PC3 prostate cancer cells
Assay: Lifespan of SCID mice inoculated with human PC3 prostate cancer cells
Assay type: in vivo

COc1ccc(CCN2CCC[C@H]2COC(c2ccccc2)c2ccc(Cl)cc2)cc1 (stereo partly shown) [TH-1177]
lifespan: significantly extended the lifespan
